Our source for the Activity and IC50 values is ChEMBL document CHEMBL1158181, “Studies of trypanocidal (inhibitory) power of naphthoquinones: evaluation of quantum chemical molecular descriptors for structure-activity relationships” (Eur J Med Chem, 2008).

The nature of data set [1]: Oxidation of dithiothreitol assessed as oxygen consumption at 50 uM. The data set is classed as physicochemical.
Data set [2] is described as follows: Oxidation of dihydrolipoamide assessed as oxygen consumption at 50 uM. The format is physicochemical.
Another data set deals with Leptomonas seymouri. As to the kind of experiment: Antitrypanosomal activity against Leptomonas seymouri. The data set is classed as functional, organism-based.
The test system of another data set is Crithidia fasciculata. As to the kind of experiment: Antitrypanosomal activity against Crithidia fasciculata. The data set is classed as functional, organism-based.

SMILES strings stand for the structures.

As to `CC1(c2ccccc2)CCC2=C(O1)c1ccccc1C(=O)C2=O` (centres undefined), the Activity in data set [1] amounted to 315 µM/min; in data set [2], 990 µM/min. Moreover, the IC50 in the data set on Leptomonas seymouri and in the data set with Crithidia fasciculata was 700 nM in each case.

With `CCC1(C)CCC2=C(O1)c1ccccc1C(=O)C2=O` (centres undefined), the Activity in data set [1] was 208 µM/min; in data set [2], 733 µM/min. Moreover, the IC50 with Leptomonas seymouri amounted to 300 nM; in the data set with Crithidia fasciculata, 800 nM.

Consider `CC1=Cc2c(C(C)C)ccc(C)c2C(=O)C1=O`, for which the Activity in data set [2] is 434 µM/min. In addition, the IC50 stood at 4000 nM in the data set with Leptomonas seymouri and 6000 nM in the data set with Crithidia fasciculata.

In the case of `CC1(C)CCC2=C(O1)c1cc(Cl)ccc1C(=O)C2=O`, the Activity is 470 µM/min in data set [1] and 879 µM/min in data set [2]. The results for the IC50 in the data set with Leptomonas seymouri and in the data set with Crithidia fasciculata were 400 nM and 800 nM, respectively.

In the case of `CC1(C)CCC2=C(O1)C(=O)c1ccccc1C2=O` [ALPHA-LAPACHONE], the Activity is 1 µM/min in data set [1] and 7 µM/min in data set [2]. Moreover, the IC50 in the data set with Leptomonas seymouri was 4100 nM; with Crithidia fasciculata, 27000 nM.

With `CC1(C)CCC2=C(O1)c1ccccc1C(=O)C2=O` [LAPACHONE], the Activity in data set [1] was determined as 238 µM/min; in data set [2], 808 µM/min. The IC50 in the data set on Leptomonas seymouri was 400 nM.

For the compound `CC1=CC2=C(C(=O)C1=O)C(C)CCC2C(C)C` (centres undefined) [MANSONONE A], the Activity came out at 37 µM/min in data set [1] and 26 µM/min in data set [2]. For the same compound, the IC50 was 8500 nM with Leptomonas seymouri and 15000 nM with Crithidia fasciculata.

Regarding `CC1=C2OCC(C)c3ccc(C)c(c32)C(=O)C1=O` (centres undefined) [MANSONONE E], the figures for the Activity in data set [1] and in data set [2] were 66 µM/min and 276 µM/min, respectively. Besides, the IC50 came out at 400 nM in the data set on Leptomonas seymouri and 600 nM in the data set on Crithidia fasciculata.

As to `CC1=COC2=C(C)C(=O)C(=O)c3c(C)ccc1c32` [MANSONONE F], the Activity in data set [1] was found to be 14 µM/min; in data set [2], 58 µM/min. Moreover, the IC50 was 100 nM with Leptomonas seymouri and 300 nM in the data set with Crithidia fasciculata.

As usually defined, the IC50 is the concentration at which inhibition is half-maximal. A lower IC50 goes with inhibition by little substance.
